“Also recorded” adds a separate entry of the source.
Key:
[1] = test system: human MHCC97H liver tumor cells; assay: Subcutaneous MHCC97H tumor model; assay type: in vivo, mice; settings: for T/C ratio: 5 days on and 2 days on; for anti-tumor activity (in words): established fast growing subcutaneous MHCC97H tumors
Protocol: Method: Male BalB/c nude mice (6-8 week old) where subcutaneously injected with human MHCC97H liver tumor cells and were divided into treatment groups (ten animals in one group) after the tumors were established (ca. 500 mm^3). Respective groups were administered orally with the 3-(1-{3-[5-(1-methyl-piperidin-4-ylmethoxy)-pyrimidin-2-yl]-benzyl}-6-oxo-1,6-dihydro-pyridazin-3-yl)-benzonitrile hydrochloride hydrate at different doses (10, 30 and 100 mg/kg) for 5 days on and […] or daily with sorafenib (50 mg/kg).

MHCC97H tumor fragments = assay: Orthotopic MHCC97H tumor model; settings: 100 mg/kg orally
Protocol: Method: In male BalB/c nude mice (7-8 week old) MHCC97H tumor fragments (2-3 mm^3) where orthotopically implanted into the left lobe of the liver. After 1 week of intrahepatic implantation animals were divided into treatment groups (ten animals in one group). Respective groups were administered orally with 3-(1-{3-[5-(1-methyl-piperidin-4-ylmethoxy)-pyrimidin-2-yl]-benzyl}-6-oxo-1,6-dihydro-pyridazin-3-yl)-benzonitrile hydrochloride hydrate at 100 mg/kg/5 days on and 2 days off for 5 weeks. At the end of treatment, tumor size and tumor weight were measured, plasma AFP levels and lung metastases analyzed.

[2] = test system: human primary HCC explants
Protocol: Method: Male BalB/c nude mice (6-8 week old) where subcutaneously transplanted with a primary HCC tumor fragment. Animals were divided into treatment groups (12 animals in one group) after the tumors were established. Respective groups were administered orally with the 3-(1-{3-[5-(1-methyl-piperidin-4-ylmethoxy)-pyrimidin-2-yl]-benzyl}-6-oxo-1,6-dihydro-pyridazin-3-yl)-benzonitrile hydrochloride hydrate at 100 mg/kg for 5 out of 7 days.

CN1CCC(COc2cnc(-c3cccc(Cn4nc(-c5cccc(C#N)c5)ccc4=O)c3)nc2)CC1.Cl.O [3-(1-{3-[5-(1-methyl-piperidin-4-ylmethoxy)-pyrimidin-2-yl]-benzyl}-6-oxo-1,6-dihydro-pyridazin-3-yl)-benzonitrile hydrochloride hydrate]
tumor growth delay (TGD, time to reach a tumor volume of 1000 mm^3) ([1]; 10 mg/kg orally): 24 days | T/C ratio ([1]; 10 mg/kg orally, end of treatment, tumors ca. 500 mm^3 at start): −57% | tumor growth delay (TGD, time to reach a tumor volume of 1000 mm^3) ([1]; 30 mg/kg orally): 53 days | T/C ratio ([1]; 30 mg/kg orally, end of treatment): −93% | tumor growth delay (TGD, time to reach a tumor volume of 1000 mm^3) ([1]; 100 mg/kg orally): > 53 days | T/C ratio ([1]; 100 mg/kg orally, end of treatment): −93% | anti-tumor activity (in words) [1]: completely inhibited growth and induced regressions | tolerability (MHCC97H tumor fragments; 5 days on and 2 days off for 5 weeks): well tolerated | anti-tumor activity on primary tumor (in words) (MHCC97H tumor fragments; 5 days on and 2 days off for 5 weeks, end of treatment at day 35, hydrochloride hydrate): complete regression in all mice; also recorded: primary tumor regression (p<0.001) | lung metastases (MHCC97H tumor fragments; end of treatment): reduction lung metastases (p<0.01) | AFP levels in plasma (MHCC97H tumor fragments; end of treatment, hydrochloride hydrate): no AFP was measurable; also recorded: significantly reduced (p<0.001) | body weight (MHCC97H tumor fragments; followed throughout the study): no body weight loss could be detected | tolerability (body weight) ([2]; all mice): well tolerated in all mice | anti-tumor activity compared with sorafenib monotherapy ([2]; models LIM801 and LIM612 (strong signs of c-Met signaling)): better anti-tumor activity than sorafenib monotherapy | further activity in primary explants (in words) ([2]; nine primary explants, besides CR and SD): marginal activity in one additional model | complete responses (CR) ([2]; nine subcutaneous established primary explants, 100 mg/kg 5 out of 7 days): 1/9 | number of models with significantly inhibited growth ([2]; out of 9 models, 100 mg/kg/5 out of 7 days): 4

CNC(=O)c1cc(Oc2ccc(NC(=O)Nc3ccc(Cl)c(C(F)(F)F)c3)cc2)ccn1 [sorafenib, reference compound]
anti-tumor activity (in words) [1]: marginal anti tumor activity with no tumor regressions | T/C value ([1]; sorafenib 50 mg/kg orally daily, end of treatment): 27% | number of models with anti-tumor activity ([2]; out of 9 models, sorafenib 50 mg/kg/5 out of 7 days): 7
